From US5292498A, “Method of treating lung disease with uridine triphosphates” (The University of North Carolina At Chapel Hill, priority 1991, dated 1994)

Assays:
[1] = test system: CF human nasal epithelium; assay: Bioelectric studies (Isc) of cystic fibrosis (CF) human nasal epithelium; format: cell-based; settings: for Isc response tracing: 10^-4 M, amiloride-pretreated (10^-4 M)
Procedure: Freshly excised human nasal epithelium from normal or cystic fibrosis subjects was grown in primary culture in F-12, hormone-supplemented medium in accordance with known procedures. See R. Wu et al., Am. Rev. Respir. Dis. 132, 311-320 (1985). For [Ca^2+ ]i measurements, cultures were grown on non-fluorescent vitrogen substrates on glass coverslips. Cultures for electrophysiologic studies were grown to confluence on permeable collagen matrix supports (CMS), allowing addition of agonists to the basolateral or apical surface of the epithelial sheet.
Confluent monolayers of primary human nasal epithelium were mounted in modified Ussing chambers in accordance with known procedures. See, e.g., R. Boucher et al., J. Physiol. (Lond.) 405, 77-103 (1988); M. Knowles et al., Science 221, 1067-1070 (1983). The studies described below were performed under short circuit current conditions at 37° C., and in some studies, amiloride was added to the apical bath (10^-4 M) to block transepithelial sodium transport. Changes in transepithelial potential difference (Vt), resistance (Rt) and short circuit current (Isc) were measured in response to addition of various nucleotides. Each cultured preparation was exposed to only one concentration of an agonist on either the basolateral or apical surface to avoid the tachyphylaxis observed in preliminary cumulative dose response studies. To construct concentration-effect relationships of responses to nucleotides, it was assumed that the same maximum response to an agonist could be induced from each tissue culture preparation from the same individual.
The purinergic receptor subtype(s) linked to regulation of ion transport of human nasal epithelium were characterized by obtaining concentration-effect relationships for a variety of purine and pyrimidine agonists in preparations derived from normal and CF patients. We characterized receptor subtype(s) on the […] surface by measuring nucleotide effect on basal Na^+ transport rates. Because therapies designed to induce Cl^- secretion might best be delivered by the aerosol route, receptor subtype characterization on the apical barrier was performed in the presence of amiloride. The effect of extracellular nucleotides on ion transport is reported as the percent change in Isc from control values when applied to the basolateral or apical surface of the culture. Basal pre-agonist currents were similar for tissues in each concentration group.
Availability of Cystic Fibrosis (CF) tissues is limited, and our investigation of effects of nucleotides was restricted to examining regulation of Cl^- secretion rates and [Ca^2+ ]i levels by ATP and UTP.

[2] = test system: CF nasal epithelial cells; assay: Intracellular calcium [Ca^2+ ]i in single CF nasal epithelial cells (Fura-2); format: cell-based, human; settings: FIG. 6
Procedure: Freshly excised human nasal epithelium from normal or cystic fibrosis subjects was grown in primary culture in F-12, hormone-supplemented medium in accordance with known procedures. See R. Wu et al., Am. Rev. Respir. Dis. […] For [Ca^2+ ]i measurements, cultures were grown on non-fluorescent vitrogen substrates on glass coverslips. Cultures for electrophysiologic studies were grown to confluence on permeable collagen matrix supports (CMS), allowing addition of agonists to the basolateral or apical surface of the epithelial sheet.
Primary human nasal epithelial cells grown to confluence on vitrogen coated coverslips were loaded with a final concentration of 3 μM Fura-2/AM at 37° C. for 30 minutes. The cells were then washed in NaCl Ringer and mounted in a chamber for measurements of fluorescence. To reduce the rate of leakage of Fura-2 from the cell into the extracellular space and avoid time-dependent compartmentalization of the probe, all measurements of [Ca^2+ ]i were performed at 25° C.
Measurements of [Ca^2+ ]i in single human nasal epithelial cells were obtained with a modular microspectrofluorimeter (SPEX Industries, Inc., Edison, N.J.) attached to a Zeiss Axiovert IM 35 microscope. […] The fluorescent signal from a single cell was measured with a photometer equipped with a pinhole (spot diameter of 3-5 μm) that excluded signals from adjacent cells. […]

Nc1ncnc2c1ncn2[C@@H]1O[C@H](COP(=O)(O)OP(=O)(O)OP(=O)(O)O)[C@@H](O)[C@H]1O [ATP, adenosine triphosphate]
Isc response tracing ([1]; apical surface, FIG. 4A): Cl^- secretion in response to ATP
Isc response tracing ([1]; apical surface, FIG. 4B): opposite polarity
Emax ([1]; Homo sapiens, read-out: maximum mean % change in Isc): 14 ± 3%
change in Isc over basal levels ([1]; apical surface, amiloride-pretreated CF tissues): Most tissues exhibited an increase in Isc over basal levels
pattern of Isc response ([1]; apical, amiloride-pretreated CF tissues): two distinct patterns of response
CF tissues responding with a change to opposite polarity of Isc ([1]; apical, amiloride-pretreated CF tissues, FIG. 4B): approximately 30%
Cl^- secretion (amiloride-resistant Isc) ([1]; basolateral addition, CF tissues): Only small changes in Cl^- secretion
[Ca^2+ ]i response in CF tissues [2]: Increases in [Ca^2+ ]i
